For 33 molecules, IC50 results are on record in US20230416205A1, “COMPOUNDS, COMPOSITIONS, AND METHODS” (Denali Therapeutics Inc, priority 2020, published 2023).

The test system of the assay is NLRP3. Put plainly: IL-1β secretion assay in PMA-differentiated, LPS/nigericin-stimulated THP-1 cells (384-well, ELISA read-out). The class given is cell-based, human. The settings on record: Homo sapiens, THP-1, Table 4; IL-1β secretion, LPS/nigericin-stimulated THP-1 cells; read-out: IC50. In a few lines: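 Secreted IL-1β quantified by capture ELISA from supernatants of PMA-differentiated THP-1 cells (30K per well). Sequence: LPS 25 ng/mL priming 2 h, compound 1 h, nigericin 2 h; dose-responses normalized between high (LPS plus 5 μM nigericin) and low (LPS alone) controls.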
Regarding `COc1ncc(F)c(NC(=O)CN2CC3(CC3)c3cc(Br)ccc3C2=O)n1` [Example 391, 2-(6-bromo-1-oxospiro[3H-isoquinoline-4,1′-cyclopropane]-2-yl)-N-(5-fluoro-2-methoxypyrimidin-4-yl)acetamide], the concentration for half-maximal inhibition (IC50) was 22.4 µM. Regarding `N#Cc1cc(F)cnc1NC(=O)CN1CC2(CC2)c2cc(Br)ccc2C1=O` [Example 392, 2-(6-bromo-1-oxospiro[3H-isoquinoline-4,1′-cyclopropane]-2-yl)-N-(3-cyano-5-fluoropyridin-2-yl)acetamide], the half-maximal inhibitory concentration (IC50) is 5.7 µM.

For the molecule `CCN1CCC12CC(NC(=O)CN1CC3(CC3)c3cc(Br)ccc3C1=O)C2` (stereo not drawn) [Example 393, 2-(6-bromo-1-oxospiro[3H-isoquinoline-4,1′-cyclopropane]-2-yl)-N-(1-ethyl-1-azaspiro[3.3]heptan-6-yl)acetamide], the IC50 was 7.89 µM.

With `CC(C)(C)OC(=O)N1CCC12CC(NC(=O)CN1CC3(CC3)c3cc(Br)ccc3C1=O)C2` (stereo not drawn) [Example 394, tert-butyl 6-[[2-(6-bromo-1-oxospiro[3H-isoquinoline-4,1′-cyclopropane]-2-yl)acetyl]amino]-1-azaspiro[3.3]heptane-1-carboxylate], the concentration for half-maximal inhibition (IC50) was 5.21 µM. On to `N#Cc1cnc(NC(=O)CN2CC3(CC3)c3cc(Br)ccc3C2=O)c(Cl)c1` [Example 395, 2-(6-bromo-1-oxospiro[3H-isoquinoline-4,1′-cyclopropane]-2-yl)-N-(3-chloro-5-cyanopyridin-2-yl)acetamide], for which the IC50 was determined as 1.38 µM. Under `Cc1cnc(NC(=O)CN2CC3(CC3)c3cc(Br)ccc3C2=O)c(F)c1` [Example 396, 2-(6-bromo-1-oxospiro[3H-isoquinoline-4,1′-cyclopropane]-2-yl)-N-(3-fluoro-5-methylpyridin-2-yl)acetamide] stands 1.6 µM. The result for `Cc1cc(C#N)cnc1NC(=O)CN1CC2(CC2)c2cc(Br)ccc2C1=O` [Example 397, 2-(6-bromo-1-oxospiro[3H-isoquinoline-4,1′-cyclopropane]-2-yl)-N-(5-cyano-3-methylpyridin-2-yl)acetamide] reads 2 µM. The result for `O=C(CN1CC2(CC2)c2cc(Br)ccc2C1=O)Nc1ccc2cnsc2c1` [Example 398, N-(1,2-benzothiazol-6-yl)-2-(6-bromo-1-oxospiro[3H-isoquinoline-4,1′-cyclopropane]-2-yl)acetamide] reads 1.91 µM; that for `Cc1cnc2ccc(NC(=O)CN3CC4(CC4)c4cc(Br)ccc4C3=O)nn12` [Example 399, 2-(6-bromo-1-oxospiro[3H-isoquinoline-4,1′-cyclopropane]-2-yl)-N-(3-methylimidazo[1,2-b]pyridazin-6-yl)acetamide], 1.35 µM. In the case of `Cc1cn2nc(NC(=O)CN3CC4(CC4)c4cc(Br)ccc4C3=O)ccc2n1` [Example 400, 2-(6-bromo-1-oxospiro[3H-isoquinoline-4,1′-cyclopropane]-2-yl)-N-(2-methylimidazo[1,2-b]pyridazin-6-yl)acetamide], the IC50 turned out to be 0.612 µM. Under `COc1ncnc(NC(=O)CN2CC3(CC3)c3cc(Br)ccc3C2=O)c1F` [Example 401, 2-(6-bromo-1-oxospiro[3H-isoquinoline-4,1′-cyclopropane]-2-yl)-N-(5-fluoro-6-methoxypyrimidin-4-yl)acetamide] stands 1.89 µM; under `Cc1c(NC(=O)CN2CC3(CC3)c3cc(Br)ccc3C2=O)nn2ccccc12` [Example 402, 2-(6-bromo-1-oxospiro[3H-isoquinoline-4,1′-cyclopropane]-2-yl)-N-(3-methylpyrazolo[1,5-a]pyridin-2-yl)acetamide], 9.27 µM; under `O=C(CN1CC2(CC2)c2cc(Br)ccc2C1=O)Nc1nn2ccccc2c1F` [Example 403, 2-(6-bromo-1-oxospiro[3H-isoquinoline-4,1′-cyclopropane]-2-yl)-N-(3-fluoropyrazolo[1,5-a]pyridin-2-yl)acetamide], 2.32 µM. Under `O=C(CN1CC2(CC2)c2cc([C@@]3(F)C[C@H]3C(F)(F)F)ccc2C1=O)Nc1ncc(F)cn1` [Example 404, N-(5-fluoropyrimidin-2-yl)-2-[6-[(1r,2r)-1-fluoro-2-(trifluoromethyl)cyclopropyl]-1-oxospiro[3H-isoquinoline-4,1′-cyclopropane]-2-yl]acetamide] stands 3.89 µM. Consider `CC1(C)COC(NC(=O)CN2CC3(CC3)c3cc(Br)ccc3C2=O)=N1` [Example 405, 2-(6-bromo-1-oxospiro[3H-isoquinoline-4,1′-cyclopropane]-2-yl)-N-(4,4-dimethyl-5H-1,3-oxazol-2-yl)acetamide], for which the half-inhibitory concentration (IC50) was found to be 18 µM.

As for `O=C(CN1CC2(CC2)c2cc(Br)ccc2C1=O)NC1CCNC1=O` (stereo not drawn) [Example 406, 2-(6-bromo-1-oxospiro[3H-isoquinoline-4,1′-cyclopropane]-2-yl)-N-(2-oxopyrrolidin-3-yl)acetamide], the 50% inhibitory concentration (IC50) was found to be 16.1 µM.

For `COc1cccnc1NC(=O)CN1CC2(CC2)c2cc(Br)ccc2C1=O` [Example 407, 2-(6-bromo-1-oxospiro[3H-isoquinoline-4,1′-cyclopropane]-2-yl)-N-(3-methoxypyridin-2-yl)acetamide], the half-inhibitory concentration (IC50) amounted to 4.28 µM.

Take `Cn1ncc2cnc(NC(=O)CN3CC4(CC4)c4cc(Br)ccc4C3=O)nc21` [Example 408, 2-(6-bromo-1-oxospiro[3H-isoquinoline-4,1′-cyclopropane]-2-yl)-N-(1-methylpyrazolo[3,4-d]pyrimidin-6-yl)acetamide]: the 50% inhibitory concentration (IC50) amounted to 0.827 µM. The result for `O=C(CN1CC2(CC2)c2cc(Br)ccc2C1=O)Nc1ncc2ncsc2n1` [Example 409, 2-(6-bromo-1-oxospiro[3H-isoquinoline-4,1′-cyclopropane]-2-yl)-N-([1,3]thiazolo[5,4-d]pyrimidin-5-yl)acetamide] reads 1.37 µM; that for `O=C(CN1CC2(CC2)c2cc(Br)ccc2C1=O)Nc1ccnnc1` [Example 410, 2-(6-bromo-1-oxospiro[3H-isoquinoline-4,1′-cyclopropane]-2-yl)-N-pyridazin-4-ylacetamide], 1.52 µM. Under `O=C(CN1CC2(CC2)c2cc(Br)ccc2C1=O)Nc1cnccn1` [Example 411, 2-(6-bromo-1-oxospiro[3H-isoquinoline-4,1′-cyclopropane]-2-yl)-N-pyrazin-2-ylacetamide] stands 1.34 µM; under `Cc1nc(NC(=O)CN2CC3(CC3)c3cc(Br)ccc3C2=O)nn1-c1ccccc1` [Example 412, 2-(6-bromo-1-oxospiro[3H-isoquinoline-4,1′-cyclopropane]-2-yl)-N-(5-methyl-1-phenyl-1,2,4-triazol-3-yl)acetamide], 3.17 µM; under `O=C(CN1CC2(CC2)c2cc(Br)ccc2C1=O)Nc1ncn(-c2ccccc2)n1` [Example 413, 2-(6-bromo-1-oxospiro[3H-isoquinoline-4,1′-cyclopropane]-2-yl)-N-(1-phenyl-1,2,4-triazol-3-yl)acetamide], 2.02 µM. Under `N#Cc1ccc(NC(=O)CN2CC3(CC3)c3cc(Br)ccc3C2=O)cn1` [Example 414, 2-(6-bromo-1-oxospiro[3H-isoquinoline-4,1′-cyclopropane]-2-yl)-N-(6-cyanopyridin-3-yl)acetamide] stands 1.26 µM; under `Cn1ccc(N2CCC(NC(=O)CN3CC4(CC4)c4cc(Br)ccc4C3=O)C2)n1` (stereo not drawn) [Example 415, 2-(6-bromo-1-oxospiro[3H-isoquinoline-4,1′-cyclopropane]-2-yl)-N-[1-(1-methylpyrazol-3-yl)pyrrolidin-3-yl]acetamide], 21 µM; under `Cn1cc(N2CCC(NC(=O)CN3CC4(CC4)c4cc(Br)ccc4C3=O)C2)cn1` (stereo not drawn) [Example 416, 2-(6-bromo-1-oxospiro[3H-isoquinoline-4,1′-cyclopropane]-2-yl)-N-[1-(1-methylpyrazol-4-yl)pyrrolidin-3-yl]acetamide], 20.8 µM. As to `Cn1cc(N2CCCC(NC(=O)CN3CC4(CC4)c4cc(Br)ccc4C3=O)C2)cn1` (stereo not drawn) [Example 417, 2-(6-bromo-1-oxospiro[3H-isoquinoline-4,1′-cyclopropane]-2-yl)-N-[1-(1-methylpyrazol-4-yl)piperidin-3-yl]acetamide], the half-maximal inhibitory concentration (IC50) came to 11.7 µM. Under `COc1ccc(NC(=O)CN2CC3(CC3)c3cc(Br)ccc3C2=O)cn1` [Example 418, 2-(6-bromo-1-oxospiro[3H-isoquinoline-4,1′-cyclopropane]-2-yl)-N-(6-methoxypyridin-3-yl)acetamide] stands 3.48 µM. The result for `O=C(CN1CC2(CC2)c2cc(Br)ccc2C1=O)Nc1ncc(C(F)F)cc1F` [Example 419, 2-(6-bromo-1-oxospiro[3H-isoquinoline-4,1′-cyclopropane]-2-yl)-N-[5-(difluoromethyl)-3-fluoropyridin-2-yl]acetamide] reads 0.769 µM; that for `O=C(CN1CC2(CC2)c2cc(Br)ccc2C1=O)Nc1ccc(OC(F)F)nc1` [Example 420, 2-(6-bromo-1-oxospiro[3H-isoquinoline-4,1′-cyclopropane]-2-yl)-N-[6-(difluoromethoxy)pyridin-3-yl]acetamide], 3.8 µM; that for `CC(C)n1cnc(NC(=O)CN2CC3(CC3)c3cc(Br)ccc3C2=O)n1` [Example 421, 2-(6-bromo-1-oxospiro[3H-isoquinoline-4,1′-cyclopropane]-2-yl)-N-(1-propan-2-yl-1,2,4-triazol-3-yl)acetamide], 2.73 µM. The result for `O=C(CN1CC2(CC2)c2cc(Br)ccc2C1=O)Nc1ncn(C2CC2)n1` [Example 422, 2-(6-bromo-1-oxospiro[3H-isoquinoline-4,1′-cyclopropane]-2-yl)-N-(1-cyclopropyl-1,2,4-triazol-3-yl)acetamide] reads 3.08 µM; that for `O=C(CN1CC2(CC2)c2cc(CC3CC3)ccc2C1=O)Nc1ncc(F)cn1` [Example 423, 2-[6-(cyclopropylmethyl)-1-oxospiro[3H-isoquinoline-4,1′-cyclopropane]-2-yl]-N-(5-fluoropyrimidin-2-yl)acetamide], 18.4 µM.
